Laboratory results from ChEMBL document CHEMBL4002623, “Synthesis and in vitro activity of dicationic indolyl diphenyl ethers as novel potent antibiotic agents against drug-resistant bacteria” (Bioorg Med Chem Lett, 2017).
Converted amounts (≈) assume the structure as drawn.

How the values were obtained:
[1] = test system: Enterococcus faecium; experiment: Antibacterial activity against vancomycin-sensitive Enterococcus faecium 09-10 by agar dilution method; assay type: functional
[2] = test system: Enterococcus faecium; experiment: Antibacterial activity against vancomycin-resistant Enterococcus faecium ATCC 700221 by agar dilution method; assay type: functional
[3] = test system: Klebsiella pneumoniae; experiment: Antibacterial activity against extended-spectrum beta-lactamase-positive Klebsiella pneumoniae ATCC 700603 by agar dilution method; assay type: functional
[4] = test system: Pseudomonas aeruginosa; experiment: Antibacterial activity against Pseudomonas aeruginosa 09-14 by agar dilution method; assay type: functional
[5] = test system: Klebsiella pneumoniae; experiment: Antibacterial activity against extended-spectrum beta-lactamase-negative Klebsiella pneumoniae 7 by agar dilution method; assay type: functional
[6] = test system: Escherichia coli; experiment: Antibacterial activity against extended-spectrum beta-lactamase-negative Escherichia coli 1515 by agar dilution method; assay type: functional
[7] = test system: Pseudomonas aeruginosa; experiment: Antibacterial activity against Pseudomonas aeruginosa ATCC 27853 by agar dilution method; assay type: functional
[8] = test system: Proteus vulgaris; experiment: Antibacterial activity against Proteus vulgaris ATCC 29905 by agar dilution method; assay type: functional
[9] = test system: Citrobacter freundii; experiment: Antibacterial activity against Citrobacter freundii ATCC 43864 by agar dilution method; assay type: functional
[10] = test system: Klebsiella pneumoniae; experiment: Antibacterial activity against extended-spectrum beta-lactamase-positive Klebsiella pneumoniae 09-25 by agar dilution method; assay type: functional
[11] = test system: Staphylococcus epidermidis; experiment: Antibacterial activity against methicillin-resistant Staphylococcus epidermidis 09-3 by agar dilution method; assay type: functional
[12] = test system: Klebsiella pneumoniae; experiment: Antibacterial activity against extended-spectrum beta-lactamase-negative Klebsiella pneumoniae 09-8 by agar dilution method; assay type: functional
[13] = test system: Enterococcus faecalis; experiment: Antibacterial activity against vancomycin-resistant Enterococcus faecalis 09-9 by agar dilution method; assay type: functional
[14] = test system: Enterococcus faecalis; experiment: Antibacterial activity against vancomycin-sensitive Enterococcus faecalis ATCC 29212 by agar dilution method; assay type: functional
[15] = test system: Enterococcus faecalis; experiment: Antibacterial activity against vancomycin-resistant Enterococcus faecalis ATCC 51299 by agar dilution method; assay type: functional
[16] = test system: Serratia marcescens; experiment: Antibacterial activity against Serratia marcescens 41002 by agar dilution method; assay type: functional
[17] = Cytotoxicity against HEK293T cells after 48 hrs by MTS assay; assay type: cell-based, HEK-293T; details: human
[18] = test system: Enterococcus faecium; experiment: Antibacterial activity against vancomycin-resistant Enterococcus faecium 05-8 by agar dilution method; assay type: functional
[19] = test system: Morganella morganii; experiment: Antibacterial activity against Morganella morganii ATCC 25830 by agar dilution method; assay type: functional
[20] = test system: Enterobacter cloacae; experiment: Antibacterial activity against Enterobacter cloacae 45301 by agar dilution method; assay type: functional
[21] = test system: Pseudomonas aeruginosa; experiment: Antibacterial activity against Pseudomonas aeruginosa PAO1 by agar dilution method; assay type: functional
[22] = test system: Escherichia coli; experiment: Antibacterial activity against extended-spectrum beta-lactamase-positive Escherichia coli 09-1 by agar dilution method; assay type: functional
[23] = test system: Staphylococcus aureus; experiment: Antibacterial activity against methicillin-sensitive Staphylococcus aureus 09-6 by agar dilution method; assay type: functional
[24] = test system: Staphylococcus aureus; experiment: Antibacterial activity against methicillin-sensitive Staphylococcus aureus ATCC 29213 by agar dilution method; assay type: functional
[25] = test system: Staphylococcus aureus; experiment: Antibacterial activity against methicillin-resistant Staphylococcus aureus ATCC 33591 by agar dilution method; assay type: functional
[26] = test system: Proteus mirabilis; experiment: Antibacterial activity against Proteus mirabilis 09-1 by agar dilution method; assay type: functional
[27] = test system: Enterococcus faecalis; experiment: Antibacterial activity against vancomycin-sensitive Enterococcus faecalis 09-8 by agar dilution method; assay type: functional
[28] = test system: Salmonella typhi; experiment: Antibacterial activity against Salmonella typhi H901 by agar dilution method; assay type: functional, Salmonella enterica subsp. enterica serovar Typhi; details: Salmonella enterica
[29] = test system: Escherichia coli; experiment: Antibacterial activity against extended-spectrum beta-lactamase-negative Escherichia coli ATCC 25922 by agar dilution method; assay type: functional
[30] = test system: Staphylococcus epidermidis; experiment: Antibacterial activity against methicillin-sensitive Staphylococcus epidermidis 09-9 by agar dilution method; assay type: functional
[31] = test system: Staphylococcus aureus; experiment: Antibacterial activity against methicillin-sensitive Staphylococcus aureus 15 by agar dilution method; assay type: functional
[32] = test system: Escherichia coli; experiment: Antibacterial activity against extended-spectrum beta-lactamase-negative Escherichia coli 09-20 by agar dilution method; assay type: functional
[33] = test system: Acinetobacter calcoaceticus; experiment: Antibacterial activity against Acinetobacter calcoaceticus ATCC 19606 by agar dilution method; assay type: functional
[34] = test system: Staphylococcus aureus; experiment: Antibacterial activity against methicillin-resistant Staphylococcus aureus 09-13 by agar dilution method; assay type: functional
[35] = test system: Klebsiella pneumoniae; experiment: Antibacterial activity against Klebsiella pneumoniae ATCC BAA-2146 expressing NDM-1 by agar dilution method; assay type: functional
[36] = test system: Providencia rettgeri; experiment: Antibacterial activity against Providencia rettgeri ATCC 31052 by agar dilution method; assay type: functional
[37] = test system: Klebsiella aerogenes; experiment: Antibacterial activity against Enterobacter aerogenes 45102 by agar dilution method; assay type: functional
[38] = test system: Staphylococcus epidermidis; experiment: Antibacterial activity against methicillin-sensitive Staphylococcus epidermidis ATCC 12228 by agar dilution method; assay type: functional

CCNC(=N)c1ccc2cc(-c3ccc(Oc4ccc(-c5cc6ccc(C(=N)NCC)cc6[nH]5)cc4)cc3)[nH]c2c1
MIC [1]: 16 µg/mL (≈ 29.6 µM) | MIC [2]: 2 µg/mL (≈ 3.7 µM) | MIC [3]: 64 µg/mL (≈ 118 µM) | MIC [4]: 128 µg/mL (≈ 237 µM) | MIC [5]: 128 µg/mL (≈ 237 µM) | MIC [6]: 64 µg/mL (≈ 118 µM) | MIC [7]: 128 µg/mL (≈ 237 µM) | MIC [8]: 128 µg/mL (≈ 237 µM) | MIC [9]: 128 µg/mL (≈ 237 µM) | MIC [10]: 64 µg/mL (≈ 118 µM) | MIC [11]: 1 µg/mL (≈ 1.85 µM) | MIC [12]: 64 µg/mL (≈ 118 µM) | MIC [13]: 1 to 8 µg/mL (≈ 1.85 to 14.8 µM) | MIC [14]: 2 µg/mL (≈ 3.7 µM) | MIC [15]: 2 µg/mL (≈ 3.7 µM) | MIC [16]: 128 µg/mL (≈ 237 µM) | CC50 at 48 h [17]: 36.3 µg/mL (≈ 67.1 µM) | MIC [18]: 4 µg/mL (≈ 7.4 µM) | MIC [19]: 128 µg/mL (≈ 237 µM) | MIC [20]: 64 µg/mL (≈ 118 µM) | MIC [21]: > 128 µg/mL | MIC [22]: 64 µg/mL (≈ 118 µM) | MIC [23]: 2 µg/mL (≈ 3.7 µM) | MIC [24]: 2 µg/mL (≈ 3.7 µM) | MIC [25]: 1 µg/mL (≈ 1.85 µM) | MIC [26]: 128 µg/mL (≈ 237 µM) | MIC [27]: 2 µg/mL (≈ 3.7 µM) | MIC [28]: 64 µg/mL (≈ 118 µM) | MIC [29]: 64 µg/mL (≈ 118 µM) | MIC [30]: 1 µg/mL (≈ 1.85 µM) | MIC [31]: 1 µg/mL (≈ 1.85 µM) | MIC [32]: 64 µg/mL (≈ 118 µM) | MIC [33]: > 128 µg/mL | MIC [34]: 1 µg/mL (≈ 1.85 µM) | MIC [35]: 128 µg/mL (≈ 237 µM) | MIC [36]: 128 µg/mL (≈ 237 µM) | MIC [37]: 64 µg/mL (≈ 118 µM) | MIC [38]: 1 µg/mL (≈ 1.85 µM)

c1cc(-c2cc3ccc(C4=NCCCN4)cc3[nH]2)ccc1Oc1ccc(-c2cc3ccc(C4=NCCCN4)cc3[nH]2)cc1
MIC [1]: 16 µg/mL (≈ 28.3 µM) | MIC [3]: > 128 µg/mL | MIC [4]: > 128 µg/mL | MIC [5]: ≥ 128 µg/mL | MIC [6]: 64 µg/mL (≈ 113 µM) | MIC [7]: > 128 µg/mL | MIC [8]: 128 µg/mL (≈ 227 µM) | MIC [9]: 128 µg/mL (≈ 227 µM) | MIC [10]: ≥ 128 µg/mL | MIC [12]: 128 µg/mL (≈ 227 µM) | MIC [14]: 4 µg/mL (≈ 7.08 µM) | MIC [16]: 128 µg/mL (≈ 227 µM) | CC50 at 48 h [17]: 43.1 µg/mL (≈ 76.3 µM) | MIC [19]: 32 µg/mL (≈ 56.7 µM) | MIC [20]: 64 µg/mL (≈ 113 µM) | MIC [21]: > 128 µg/mL | MIC [22]: 64 µg/mL (≈ 113 µM) | MIC [26]: > 128 µg/mL | MIC [27]: 2 µg/mL (≈ 3.54 µM) | MIC [29]: 64 µg/mL (≈ 113 µM) | MIC [30]: 1 µg/mL (≈ 1.77 µM) | MIC [32]: 128 µg/mL (≈ 227 µM) | MIC [33]: > 128 µg/mL | MIC [35]: 128 µg/mL (≈ 227 µM) | MIC [36]: 128 µg/mL (≈ 227 µM) | MIC [37]: 128 µg/mL (≈ 227 µM) | MIC [38]: 0.25 µg/mL (≈ 0.443 µM)

CCCNC(=N)c1ccc2cc(-c3ccc(Oc4ccc(-c5cc6ccc(C(=N)NCCC)cc6[nH]5)cc4)cc3)[nH]c2c1
MIC [1]: 16 µg/mL (≈ 28.1 µM) | MIC [2]: 2 to 16 µg/mL (≈ 3.52 to 28.1 µM) | MIC [3]: > 128 µg/mL | MIC [4]: > 128 µg/mL | MIC [5]: > 128 µg/mL | MIC [6]: > 128 µg/mL | MIC [7]: > 128 µg/mL | MIC [8]: > 128 µg/mL | MIC [9]: > 128 µg/mL | MIC [10]: > 128 µg/mL | MIC [11]: 2 µg/mL (≈ 3.52 µM) | MIC [12]: 128 µg/mL (≈ 225 µM) | MIC [13]: 16 µg/mL (≈ 28.1 µM) | MIC [14]: 16 µg/mL (≈ 28.1 µM) | MIC [15]: 16 µg/mL (≈ 28.1 µM) | MIC [16]: > 128 µg/mL | CC50 at 48 h [17]: 26.2 µg/mL (≈ 46.1 µM) | MIC [18]: 16 µg/mL (≈ 28.1 µM) | MIC [19]: 128 µg/mL (≈ 225 µM) | MIC [20]: > 128 µg/mL | MIC [21]: > 128 µg/mL | MIC [22]: > 128 µg/mL | MIC [23]: 16 µg/mL (≈ 28.1 µM) | MIC [24]: 16 µg/mL (≈ 28.1 µM) | MIC [25]: 16 µg/mL (≈ 28.1 µM) | MIC [26]: > 128 µg/mL | MIC [27]: 16 µg/mL (≈ 28.1 µM) | MIC [28]: 128 µg/mL (≈ 225 µM) | MIC [29]: > 128 µg/mL | MIC [30]: 8 µg/mL (≈ 14.1 µM) | MIC [31]: 8 µg/mL (≈ 14.1 µM) | MIC [32]: 128 µg/mL (≈ 225 µM) | MIC [33]: > 128 µg/mL | MIC [34]: 16 µg/mL (≈ 28.1 µM) | MIC [35]: > 128 µg/mL | MIC [36]: > 128 µg/mL | MIC [37]: > 128 µg/mL | MIC [38]: 8 µg/mL (≈ 14.1 µM)
